Assay results: patent US20200308299A1, “ANTI-GPC-1 ANTIBODY” (National University Corporation Kochi University, priority 2017, published 2020)
Non-standard residues stand in square brackets, D forms with d. Residues, ends and D or L forms follow the SMILES beside them. *: point of attachment. Dolaproine = CO[C@@H]([C@@H]1CCCN1)[C@@H](C)C(=O)O; Dil = CC[C@H](C)[C@H](NC)[C@@H](CC(=O)O)OC; X1 = C[C@@H](N*)[C@@H](O)c1ccccc1; NMeV = CN[C@H](C(=O)O)C(C)C

System: TE14 cells
Experiment: Anticancer agent sensitivity of TE14 cells (CellTiter-Glo cell viability)
Format: cell-based
Conditions: cultured 6 days
Description: 2000 TE14 cells were added to a 96-well plate at 90 μl. The cells were cultured overnight at 37° C. in a 5% CO2 incubator. The next day, 10 μl of an anticancer agent concentrated 10-fold relative to the final concentration was added to each well, so that the total amount was 100 μl. The cells were cultured for 6 days at 37° C. in a 5% CO2 incubator. The cell viability was measured by using a CellTiter-Glo Luminescent Cell Viability Assay reagent to detect the amount of ATP. RPMI1640+10% FBS+1% PS was used as the medium. MMAE (model number: 474645-27-7, ALB Technology) and MMAF (model number: 745017-94-1, ALB Technology) were used as the anticancer agent.

Which IC50 does the source give for CC[C@H](C)[C@@H]([C@@H](CC(=O)N1CCC[C@H]1[C@H](OC)[C@@H](C)C(=O)N[C@@H](Cc1ccccc1)C(=O)O)OC)N(C)C(=O)[C@@H](NC(=O)[C@@H](NC)C(C)C)C(C)C [MMAF, monomethyl auristatin-F] (H-[NMeV]V[Dil][Dolaproine]F-OH) here?
The IC50 was 26.8 nM.

How did the IC50 turn out when CC[C@H](C)[C@@H]([C@@H](CC(=O)N1CCC[C@H]1[C@H](OC)[C@@H](C)C(=O)N[C@H](C)[C@@H](O)c1ccccc1)OC)N(C)C(=O)[C@@H](NC(=O)[C@@H](NC)C(C)C)C(C)C [MMAE, monomethyl auristatin-E] (H-[NMeV]V[Dil][Dolaproine]-X1) was run?
The IC50 was 0.926 nM.
